Values quoted from earlier work, collected in patent publication US7815936B2, “Use of granular materials based on pyrogenically produced silicon dioxide in pharmaceutical compositions” (Evonik Degussa GmbH, priority 2001, dated 2010).

Details: pure active constituent in water, reached only after shaking over several days

saturation equilibrium value: 1.1 mg/100 ml
Structure (SMILES): C#C[C@]1(O)CC[C@H]2[C@@H]3CCc4cc(O)ccc4[C@H]3CC[C@@]21C [ethinyl oestradiol]
